What is called inhibition is the share of the control response that was lost under treatment.

The test system of data set [1] is HFF. Description: Antiangiogenic activity in confluent HFF cells assessed as inhibition of cell migration at 20 uM incubated for 24 to 48 hrs by Hoechst 33342 staining based wound healing assay. The format is functional. The following applies: Homo sapiens, time 24-48 hrs.
Data set [2] deals with HeLa. The data set can be described thus: Antiproliferative activity against human HeLa cells assessed as growth rate at 10 uM incubated for 48 hrs by MTT assay relative to control. The format is functional. The following applies: read-out: Activity. (Tetrazolium dyes change colour on reduction, which living cells bring about.)
Data set [3] concerns HFF. Description: Antiangiogenic activity in confluent HFF cells assessed as relative migration rate at 20 uM incubated for 48 hrs by Hoechst 33342 staining based wound healing assay relative to control. The class given is functional, Homo sapiens.
Data set [4] has as its system HepG2. Description: Antiproliferative activity against human HepG2 cells assessed as growth rate at 10 uM incubated for 48 hrs by MTT assay relative to control. The class given is functional. The following applies: read-out: Activity.
The target in data set [5] is Mitogen-activated protein kinase; ERK1/ERK2 (Homo sapiens) (UniProt P27361+P28482). Description: Inhibition of ERK1/2 phosphorylation in serum starved bFGF stimulated HFF cells assessed as residual phosphorylated ERK1/2 level at 20 uM preincubated for 10 mins followed by bFGF addition and measured after 20 mins by Western blotting analysis relative to control. The class given is cell-based. The conditions noted are these: time 30.0 min. On the technique in general: Immunoblotting shows a protein as a band on a membrane.

Data set [6] in a line: Cytotoxicity against human GM06114 cells assessed as growth rate at 10 uM incubated for 48 hrs by MTT assay relative to control. The conditions noted are these: gm06114, 48 h. The format is toxicity, cell-based.
In data set [7] the test system is MDA-MB-231. Description: Antiproliferative activity against human MDA-MB-231 cells assessed as growth rate at 10 uM incubated for 48 hrs by MTT assay relative to control. The class given is functional. The conditions noted are these: read-out: Activity.
The test system of data set [8] is HUVEC. Description: Antiangiogenic activity in confluent VEGF stimulated HUVEC cells assessed as inhibition of cell migration at 20 uM incubated for 24 to 48 hrs by Hoechst 33342 staining based wound healing assay. The following applies: Homo sapiens, time 24-48 hrs. The format is functional.
The test system of data set [9] is SK-MEL-28. The data set can be described thus: Antiproliferative activity against human SK-MEL-28 cells assessed as growth rate at 10 uM incubated for 48 hrs by MTT assay relative to control. The class given is functional. The following applies: read-out: Activity.
For data set [10], the target named is RAC-alpha serine/threonine-protein kinase (Homo sapiens) (UniProt P31749). The data set can be described thus: Inhibition of AKT phosphorylation in serum starved VEGF stimulated HUVEC cells at 20 uM preincubated for 10 mins followed by VEGF addition and measured after 20 mins by Western blotting analysis relative to control. The class given is cell-based. The following applies: time 30.0 min.

The subject of data set [11] is SK-BR-3. The data set can be described thus: Antiproliferative activity against human SK-BR-3 cells assessed as growth rate at 10 uM incubated for 48 hrs by MTT assay relative to control. The class given is functional. The conditions noted are these: read-out: Activity.
Data set [12] has as its system MCF7. Description: Antiproliferative activity against human MCF7 cells assessed as growth rate at 10 uM incubated for 48 hrs by MTT assay relative to control. The following applies: read-out: Activity. The format is functional.
In data set [13] the target is RAC-alpha serine/threonine-protein kinase (Homo sapiens) (UniProt P31749). The data set can be described thus: Inhibition of AKT phosphorylation in serum starved bFGF stimulated HFF cells at 20 uM preincubated for 10 mins followed by bFGF addition and measured after 20 mins by Western blotting analysis. The format is cell-based. The conditions noted are these: time 30.0 min.

For data set [14], the system named is SK-OV-3. Description: Antiproliferative activity against human SK-OV-3 cells assessed as growth rate at 10 uM incubated for 48 hrs by MTT assay relative to control. The format is functional. The following applies: read-out: Activity.
Data set [15] has as its system A549. Description: Antiproliferative activity against human A549 cells assessed as growth rate at 10 uM incubated for 48 hrs by MTT assay relative to control. The following applies: read-out: Activity. The class given is functional.
Data set [16] has as its target RAC-alpha serine/threonine-protein kinase (Homo sapiens) (UniProt P31749). The data set can be described thus: Inhibition of AKT phosphorylation in serum starved bFGF stimulated HFF cells assessed as residual activity at 20 uM preincubated for 10 mins followed by bFGF addition and measured after 20 mins by Western blotting analysis relative to control. The class given is cell-based. The following applies: time 30.0 min.

Data set [17] concerns HFF. The data set can be described thus: Antiangiogenic activity in confluent HFF cells assessed as relative migration rate at 20 uM incubated for 24 hrs by Hoechst 33342 staining based wound healing assay relative to control. The format is functional, Homo sapiens.

The source made the active and inactive calls. The rule behind the calls is not given here.

RAC-alpha serine/threonine-protein kinase (Homo sapiens), sequence (P31749 whole entry): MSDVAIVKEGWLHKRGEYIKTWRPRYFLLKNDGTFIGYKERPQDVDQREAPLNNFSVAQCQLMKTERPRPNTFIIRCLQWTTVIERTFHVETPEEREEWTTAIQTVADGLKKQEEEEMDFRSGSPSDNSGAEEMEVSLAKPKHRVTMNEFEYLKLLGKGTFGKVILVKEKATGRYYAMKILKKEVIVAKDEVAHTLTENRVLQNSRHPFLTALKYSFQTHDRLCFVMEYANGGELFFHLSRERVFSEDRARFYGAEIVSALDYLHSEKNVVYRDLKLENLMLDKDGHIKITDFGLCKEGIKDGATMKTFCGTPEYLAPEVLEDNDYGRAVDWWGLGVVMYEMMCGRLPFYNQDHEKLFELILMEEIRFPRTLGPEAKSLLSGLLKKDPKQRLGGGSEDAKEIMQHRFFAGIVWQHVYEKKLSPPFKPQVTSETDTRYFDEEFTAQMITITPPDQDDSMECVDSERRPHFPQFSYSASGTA
Mitogen-activated protein kinase; ERK1/ERK2 (Homo sapiens), sequence (P27361 whole entry, looked up): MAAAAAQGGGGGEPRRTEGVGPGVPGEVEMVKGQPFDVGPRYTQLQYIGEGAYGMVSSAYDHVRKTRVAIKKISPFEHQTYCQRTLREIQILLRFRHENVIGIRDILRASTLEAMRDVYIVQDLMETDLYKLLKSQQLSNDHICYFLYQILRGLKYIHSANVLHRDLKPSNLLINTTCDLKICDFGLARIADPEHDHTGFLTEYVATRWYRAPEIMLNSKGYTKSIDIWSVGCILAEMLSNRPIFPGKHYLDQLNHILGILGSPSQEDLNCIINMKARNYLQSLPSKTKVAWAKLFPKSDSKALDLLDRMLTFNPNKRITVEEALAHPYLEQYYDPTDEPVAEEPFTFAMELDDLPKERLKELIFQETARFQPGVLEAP
Mitogen-activated protein kinase; ERK1/ERK2 (Homo sapiens), sequence (P28482 whole entry, looked up): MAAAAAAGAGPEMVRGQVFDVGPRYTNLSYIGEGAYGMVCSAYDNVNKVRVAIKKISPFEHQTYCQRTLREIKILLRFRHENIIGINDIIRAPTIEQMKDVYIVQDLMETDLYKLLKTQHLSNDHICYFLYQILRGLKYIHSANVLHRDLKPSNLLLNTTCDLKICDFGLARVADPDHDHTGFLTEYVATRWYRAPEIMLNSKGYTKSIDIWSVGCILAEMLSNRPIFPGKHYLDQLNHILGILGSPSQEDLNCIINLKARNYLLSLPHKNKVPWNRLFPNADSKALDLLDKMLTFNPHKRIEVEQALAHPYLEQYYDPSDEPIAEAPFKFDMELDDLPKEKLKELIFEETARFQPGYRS

Consider `CCCCC(O)Cn1nc(Nc2ccc(C)cc2)c(C(=O)OCC)c1N` (stereo unspecified), for which, in data set [1], the result was Active. In addition, the growth at 10 µM in [2] was 109%; in [4] it was 99%; in data set [7], 134%; in data set [9] it was 122%; in data set [11] it was 105%; in data set [12], 155%. Also, the growth at 10 µM in data set [14] turned out to be 112%; in data set [15] it was 120%. For the same compound, the Activity came to 14.34% in [3], 50% in data set [5] and 106.98% in data set [6]. Besides, the outcome in data set [8] was inactive. Besides, the inhibition in data set [10] turned out to be 43%. Moreover, the inhibition entry in data set [13] is “Active”.
As to `CCOC(=O)c1c(Nc2ccc(C)cc2)nn(CC(O)c2ccccc2)c1N` (stereo unspecified), the Activity was 27.3% in data set [16]; below 55% in [3]; above 70% in data set [5]; 105.89% in [6]; below 40% in data set [17]. For the same compound, the growth at 10 µM in data set [2] was found to be 80%; in data set [4], 102%; in data set [7], 117%; in data set [9], 128%; in data set [11], 112%; in data set [12] it was 119%. Also, the growth at 10 µM in data set [14] was determined as 117%; in [15], 118%. Besides, the result in data set [8] was inactive. In addition, in data set [10], the inhibition was 16.2%.
On to `CCCCC(O)Cn1nc(Nc2cccc(C)c2)c(C(=O)OCC)c1N` (stereo unspecified), for which the result in [1] was Active. Moreover, the growth at 10 µM in data set [2] was determined as 98.2%; in data set [4] it was 105%; in data set [7], 113%; in data set [9] it was 110%; in [11] it was 107%; in data set [12], 112%. Also, the growth at 10 µM in data set [14] is 114%; in data set [15], 121%. The Activity in data set [5] is above 70%; in data set [6] it was 110.95%; in data set [17] it was 10.57%. In addition, the result in data set [8] was inactive. The compound further gave an inhibition in data set [10] of 43%. The inhibition result in [13] is “Active”.
Regarding `CCCCC(O)Cn1nc(Nc2ccccc2C)c(C(=O)OCC)c1N` (stereo unspecified), in data set [1], the result was Active. Also, the growth at 10 µM in data set [2] turned out to be 99%; in data set [4], 99.9%; in data set [7], 127%; in data set [9], 121%; in [11], 110%; in data set [12] it was 118%. Further, the results for the growth at 10 µM in data set [14] and in data set [15] were 115% and 127%, respectively. Further, the values for the Activity in [5] and in data set [6] were above 70% and 114.61%, respectively. The outcome in data set [8] was inactive. The compound also gave an inhibition in data set [10] of 43%. Also, the inhibition result in data set [13] is “Active”.
In the case of `CCOC(=O)c1c(Nc2ccccc2)nn(CC(O)c2ccccc2)c1N` (stereo unspecified), the Activity in data set [16] was 27.3%; in [3], below 55%; in data set [5] it was above 70%; in data set [6], 96.04%; in data set [17], below 40%. Moreover, the growth at 10 µM came out at 111% in data set [2]; 108% in [4]; 131% in [7]; 114% in data set [9]; 112% in data set [11]; 150% in [12]. In addition, the growth at 10 µM in data set [14] was 118%; in [15] it was 133%. For the same compound, the outcome in data set [8] was inactive.
Regarding `CCCCC(Cn1nc(Nc2ccc(Cl)cc2)c(C(=O)OCC)c1N)OC(=O)Nc1cccc(C(F)(F)F)c1` (stereo unspecified), the result in [1] and in data set [8] was inactive. Moreover, the growth at 10 µM in [2] was 76.5%; in [4], 110%; in data set [7] it was 117%; in data set [9], 136%; in data set [11] it was 118%; in [12], 107%. The growth at 10 µM was 106% in data set [14] and 90.7% in data set [15]. Besides, the Activity in data set [5] was above 70%; in [6], 111.34%. Also, the inhibition result in data set [13] was “inactive”.
For the compound `CCCCC(O)Cn1nc(Nc2cccc(Cl)c2)c(C(=O)OCC)c1N` (stereo unspecified), in data set [1], the result was Active. In addition, the growth at 10 µM was 117% in data set [2]; 108% in [4]; 140% in data set [7]; 106% in [9]; 108% in data set [11]; 137% in data set [12]. In addition, the growth at 10 µM in data set [14] turned out to be 128%; in data set [15], 136%. For the same compound, the Activity in [5] was above 70%; in data set [6], 92.22%. Further, the result in data set [8] was inactive. Besides, in [13], the inhibition entry is “inactive”.
For the compound `CCCCC(O)Cn1nc(Nc2ccccc2)c(C(=O)OCC)c1N` (stereo unspecified), in [1], the outcome was Active. Moreover, the growth at 10 µM turned out to be 115% in data set [2]; 102% in data set [4]; 131% in data set [7]; 117% in data set [9]; 109% in data set [11]; 147% in data set [12]. The growth at 10 µM in data set [14] was determined as 118%; in [15], 130%. Besides, the Activity is above 70% in [5] and 97.13% in data set [6]. Further, in data set [8], the outcome was inactive. The compound further came in with an inhibition in data set [10] of 43%. In data set [13], the inhibition result was “Active”.
Consider `CCCCC(Cn1nc(Nc2ccc(C)cc2)c(C(=O)OCC)c1N)OC(=O)Nc1cccc(C(F)(F)F)c1` (stereo unspecified), for which the result in data set [1] and in [8] was inactive. In addition, the growth at 10 µM amounted to 97% in data set [2]; 111% in data set [4]; 149% in data set [7]; 123% in data set [9]; 110% in [11]; 143% in data set [12]. In addition, the growth at 10 µM was determined as 129% in data set [14] and 112% in [15]. Further, the Activity in data set [5] is above 70%; in [6], 99.16%. Besides, in data set [13], the inhibition result was “inactive”.
For the compound `CCCCC(Cn1nc(Nc2ccccc2)c(C(=O)OCC)c1N)OC(=O)Nc1cccc(C(F)(F)F)c1` (stereo unspecified), the result in [1] and in [8] was inactive. In addition, the growth at 10 µM in data set [2] was determined as 85.8%; in [4] it was 107%; in [7] it was 126%; in data set [9], 123%; in data set [11] it was 112%; in data set [12] it was 141%. Also, the values for the growth at 10 µM in data set [14] and in data set [15] were 113% and 98.1%, respectively. Further, the Activity in [5] is above 70%; in [6], 96.63%. For the same compound, the inhibition entry in data set [13] is “inactive”.
Take `CCOC(=O)c1c(Nc2ccc(C)cc2)nn(CC(OC(=O)Nc2cccc(C(F)(F)F)c2)c2ccccc2)c1N` (stereo unspecified): the result in [1] and in data set [8] was inactive. Further, the growth at 10 µM in data set [2] was found to be 81.4%; in [4], 122%; in [7], 124%; in [9], 129%; in data set [11], 124%; in data set [12] it was 129%. The growth at 10 µM was 131% in data set [14] and 98.4% in [15]. Also, the values for the Activity in data set [5] and in data set [6] were above 70% and 126.2%, respectively. Besides, the inhibition result in [13] is “inactive”.
Regarding `CCCCC(Cn1nc(Nc2ccccc2C)c(C(=O)OCC)c1N)OC(=O)Nc1cccc(C(F)(F)F)c1` (stereo unspecified), the result in data set [1] and in data set [8] was inactive. Moreover, the growth at 10 µM is 58.5% in data set [2]; 106% in data set [4]; 117% in data set [7]; 141% in data set [9]; 124% in [11]; 110% in [12]. For the same compound, the growth at 10 µM was determined as 103% in data set [14] and 81.7% in data set [15]. The figures for the Activity in [5] and in [6] were above 70% and 110.05%, respectively. The inhibition in [10] is 29.7%. In [13], the inhibition entry was “inactive”.
